Assay results as given in patent US11787816B2, “Chlorin compound, and preparation and use thereof” (Southwest Jiaotong University, priority 2021, dated 2023).

What was measured:
[1] = system: murine mammary carcinoma 4T1 cells; assay: Photosensitizer-mediated PDT, in vitro proliferation (MTT), 4T1; assay type: cell-based
Protocol: Several kinds of tumor cells (human cervical cancer Hela cells, human hepatocellular carcinoma huh-7 cells and murine mammary carcinoma 4T1 cells) cultured in vitro from a variety of tissues were taken as cell models, so as to investigate the photodynamic effects mediated by different doses of CEFN, CEFO, Ce6 and HPPH on the three different tumor cells (n=3). The specific experimental procedures were carried out as follows.
Cells in the logarithmic growth phase were harvested and seeded in a 24-well plate. After growing to a confluence of 70-80%, the cells were randomly divided into a control group (free of drug and light irradiation), a drug group and a photodynamic group. The CEFN, CEFO, Ce6 and HPPH were added respectively in dark, and for each drug, four final concentrations 1, 2, 5, and 10 μg/mL were set with 3 replicates for each group. After the co-incubation, the groups were treated individually. Regarding the photodynamic group, the light irradiation was performed at a wavelength of 660 nm and three different light intensities, i.e., 2, 4 and 8 J/cm^2. After that, each group was digested, and were inoculated into a 96-well plate at 100 μL per well with 4 replicates for each treatment. 24 hours later, the 96-well plate was subjected to MTT assay as follows. Each well was added with 20 μL of MTT (3-4,5-dimethylthiazol-2,5-diphenyltetrazolium bromide) solution in the dark and incubated for 4 hours. The supernatant was discarded, and the residue was dissolved with 150 μL of dimethyl sulfoxide for 15 min. After that, the 96-well plate was measured by a microplate reader for the absorbance (OD value). The relative cell viability was calculated as follows: relative cell viability=OD value of experimental group/OD value of control group*100%.
In this experiment, photodynamic effect mediated by the compounds (except CEFO and CEFN) in different Examples of this disclosure on the murine mammary carcinoma 4T1 cells was investigated. The experimental procedures are carried out as follows. Cells in the logarithmic growth phase were harvested and seeded in a 24-well plate. After growing to a confluence of 70-80%, the cells were randomly divided into multiple photodynamic groups and multiple no-light control groups. The compounds (as shown in Table 8a) with a final concentration of 10 μg/mL were added to each group respectively in dark with 3 replicates for each group, so as to co-incubate the cells with the drug. Regarding the multiple photodynamic groups, the light irradiation was performed at a wavelength of 660 nm and the light intensity of 8 J/cm^2. After that, each group was digested, and were inoculated into a 96-well plate at 100 μL per well with 4 replicates for light treatment and no light treatment. 24 hours later, the 96-well plate was measured by MTT assay as follows. Each well was added with 20 μL of MTT (3-4,5-dimethylthiazol-2,5-diphenyltetrazolium bromide) solution in the dark and incubated for 4 hours. The supernatant was discarded, and the residue was dissolved with 150 μL of dimethyl sulfoxide for 15 min. After that, the 96-well plate was measured by a microplate reader for the absorbance (OD value). The relative cell viability of the murine mammary carcinoma 4T1 cells was calculated as follows according to the measured absorbance (OD value) in each group: relative cell viability=OD value of experimental group/OD value of control group*100%.

[2] = system: murine mammary carcinoma 4T1 cells; assay: Antitumor activity as photosensitizers on tumor-bearing mice (two PDT treatments); assay type: in vivo; conditions: for Inhibitory rate (average ± SD, %) / Tumor weight (average ± SD, g): 0.25 mg/kg tail vein, two PDT treatments one week apart, 660 nm, 150 Joule/cm^2, 14 days after treatment; for Body weight At the beginning / Body weight At the end: 0.25 mg/kg, two PDT treatments, mice, in g (unit assumed)
Protocol: (§1) The murine mammary carcinoma cells (4T1 line) were subjected to adherent culture. After growing to a confluence of 70%-80%, the cells in the culture flask were routinely digested, centrifuged and counted, and then resuspended with 0.85% normal saline to a density of 1×10^7 cells/mL. The cell suspension was injected into the left lateral middle axillary subcutaneous part of […] Bal b/c healthy mice (female, aged 6-8 weeks) at 0.1 mL/mouse. When the tumor diameter, which was observed every other day, reached 0.6-0.8 cm, the mice with well-growing tumors and no ulcers on the epidermis were selected for grouped treatment.
(2) Mice with similar body weight and uniform tumor size are selected and randomly divided into 4 groups with 6 mice for each group. After inoculation of 4T1 cells and the tumor volume grows to 50˜80 mm^3, the mice were subjected to a first drug administration from the tail vein by group.
6 h after the drug administration, the mice were fixed to expose the tumor growth site. As a first PDT treatment, light irradiation was performed for 8 min, using PDT-660 photodynamic therapy equipment at the laser wavelength of 660 nm and the light dose of 150 Joule/cm^2. One week later, the second PDT treatment (the dosage and lighting conditions were the same as those of the first PDT treatment) was performed. The mice were sacrificed 14 days after the treatment. The tumor was removed, weighed and recorded.

[3] = system: murine mammary carcinoma 4T1 cells; assay: Antitumor activity as sonosensitizers (SDT) on tumor-bearing mice; assay type: in vivo; conditions: for Inhibitory rate (average ± SD, %) / Tumor weight (average ± SD, g): SDT 1.0 MHz, 3.0 W/cm^2, 3 min, 6 h after dosing, 7 days after SDT; for Body weight At the beginning / Body weight At the end: SDT, mice, in g (unit assumed)
Protocol: as §1
Mice with similar body weight and uniform tumor size are selected and randomly divided into 6 groups with 6 mice for each group. 48 h after inoculation, the mice were subjected to drug administration separately from the tail vein by group.
[…] 6 h after drug administration, each group of mice was anesthetized by intraperitoneal injection with 0.2 mL of 1% pentobarbital sodium. Then the mice were fixed to allow the tumor growth site exposed. The SDT group was treated using an ultrasonic therapeutic apparatus at an impulse waveform of 1.0 MHz and power of 3.0 W/cm^2 for 3 min. 7 days after SDT, the animals were sacrificed. The tumor was stripped and weighed, and the body weight was recorded.

3-hexoxymethyl-3-devinyl-chlorin e4 disodium salt [CEFO]
cell viability (%) ([1]; 1 μg/mL, 660 nm, 2 J/cm^2): 86 ± 3%
cell viability (%) ([1]; 1 μg/mL, 660 nm, 4 J/cm^2): 84 ± 4%
cell viability (%) ([1]; 1 μg/mL, 660 nm, 8 J/cm^2): 78 ± 3%
cell viability (%) ([1]; 1 μg/mL, no light): 103 ± 2%
cell viability (%) ([1]; 2 μg/mL, 660 nm, 2 J/cm^2): 67 ± 3%
cell viability (%) ([1]; 2 μg/mL, 660 nm, 4 J/cm^2): 41 ± 3%
cell viability (%) ([1]; 2 μg/mL, 660 nm, 8 J/cm^2): 39 ± 2%
cell viability (%) ([1]; 2 μg/mL, no light): 103 ± 2%
cell viability (%) ([1]; 5 μg/mL, 660 nm, 2 J/cm^2): 38 ± 2%
cell viability (%) ([1]; 5 μg/mL, 660 nm, 4 J/cm^2): 21 ± 2%
cell viability (%) ([1]; 5 μg/mL, 660 nm, 8 J/cm^2): 19 ± 42%
cell viability (%) ([1]; 5 μg/mL, no light): 99 ± 2%
cell viability (%) ([1]; 10 μg/mL, 660 nm, 2 J/cm^2): 29 ± 1%
cell viability (%) ([1]; 10 μg/mL, 660 nm, 4 J/cm^2): 5 ± 1%
cell viability (%) ([1]; 10 μg/mL, 660 nm, 8 J/cm^2): 3 ± 1%
cell viability (%) ([1]; 10 μg/mL, no light): 100 ± 3%
Inhibitory rate (average ± SD, %) [2]: 96.9 ± 3.1%
Tumor weight (average ± SD, g) [2]: 0.029 ± 0.028 g
Body weight At the beginning [2]: 20.2 ± 0.2
Body weight At the end [2]: 22.2 ± 0.5
Inhibitory rate (average ± SD, %) ([3]; 2.5 mg/kg tail vein): 64.3 ± 4.3%
Tumor weight (average ± SD, g) ([3]; 2.5 mg/kg tail vein): 0.061 ± 0.007 g
Body weight At the beginning ([3]; 2.5 mg/kg): 20.4 ± 0.3
Body weight At the end ([3]; 2.5 mg/kg): 21.4 ± 0.3
Inhibitory rate (average ± SD, %) ([3]; 5 mg/kg tail vein): 84.2 ± 2.9%
Tumor weight (average ± SD, g) ([3]; 5 mg/kg tail vein): 0.027 ± 0.004 g
Body weight At the beginning ([3]; 5 mg/kg): 20.2 ± 0.2
Body weight At the end ([3]; 5 mg/kg): 21.3 ± 0.2

3-n-hexylaminomethyl-3-devinyl-chlorin e4 disodium salt [CEFN]
cell viability (%) ([1]; 1 μg/mL, 660 nm, 2 J/cm^2): 97 ± 2%
cell viability (%) ([1]; 1 μg/mL, 660 nm, 4 J/cm^2): 89 ± 3%
cell viability (%) ([1]; 1 μg/mL, 660 nm, 8 J/cm^2): 81 ± 3%
cell viability (%) ([1]; 1 μg/mL, no light): 97 ± 3%
cell viability (%) ([1]; 2 μg/mL, 660 nm, 2 J/cm^2): 79 ± 3%
cell viability (%) ([1]; 2 μg/mL, 660 nm, 4 J/cm^2): 52 ± 2%
cell viability (%) ([1]; 2 μg/mL, 660 nm, 8 J/cm^2): 39 ± 2%
cell viability (%) ([1]; 5 μg/mL, 660 nm, 2 J/cm^2): 59 ± 2%
cell viability (%) ([1]; 5 μg/mL, 660 nm, 4 J/cm^2): 24 ± 3%
cell viability (%) ([1]; 5 μg/mL, 660 nm, 8 J/cm^2): 18 ± 1%
cell viability (%) ([1]; 5 μg/mL, no light): 98 ± 2%
cell viability (%) ([1]; 10 μg/mL, 660 nm, 2 J/cm^2): 38 ± 3%
cell viability (%) ([1]; 10 μg/mL, 660 nm, 4 J/cm^2): 10 ± 2%
cell viability (%) ([1]; 10 μg/mL, 660 nm, 8 J/cm^2): 8 ± 3%
cell viability (%) ([1]; 10 μg/mL, no light): 101 ± 3%
Inhibitory rate (average ± SD, %) [2]: 86.1 ± 3.5%
Tumor weight (average ± SD, g) [2]: 0.132 ± 0.032 g
Body weight At the beginning [2]: 20.3 ± 0.3
Body weight At the end [2]: 22.4 ± 0.4
Inhibitory rate (average ± SD, %) ([3]; 2.5 mg/kg tail vein): 42.1 ± 4.2%
Tumor weight (average ± SD, g) ([3]; 2.5 mg/kg tail vein): 0.099 ± 0.007 g
Body weight At the beginning ([3]; 2.5 mg/kg): 20.5 ± 0.3
Body weight At the end ([3]; 2.5 mg/kg): 21.6 ± 0.2
Inhibitory rate (average ± SD, %) ([3]; 5 mg/kg tail vein): 66.7 ± 3.0%
Tumor weight (average ± SD, g) ([3]; 5 mg/kg tail vein): 0.057 ± 0.005 g
Body weight At the beginning ([3]; 5 mg/kg): 20.3 ± 0.2
Body weight At the end ([3]; 5 mg/kg): 21.3 ± 0.3
